{"source": "patent US11780841B2", "about": "“3,6-methano-1H-pyrrolo[3,2-b]pyridine and 3,6-methano-1H-pyrrolo[3,2-c]pyridine compounds and medicaments using same” (priority 2018, dated 2023)", "data": [{"tested_on": "recombinant rabies virus 1088 strain expressing Gaussia Luciferase (GLuc) (1088/GLuc)", "assay_type": "cell-based", "conditions": "read-out: Anti-rabies activity", "units": {"IC50": "µM"}, "values": [{"molecule": "CC(C)CCN1C[C@H]2C[C@]3(C(=O)NCCC(=O)O)NC[C@H]2[C@H]1[C@H]3Cc1cccc2ccccc12", "note": "[IF-413]", "IC50": "10 to 30"}, {"molecule": "CC(C)CC[C@@H]1[C@@H]2[C@@H]3CN[C@@]1(C(=O)NCC(C)C)C[C@@H]3CN2Cc1ccccc1", "note": "[IF-411]", "IC50": "< 5"}, {"molecule": "CCCCCCNC(=O)[C@@]12C[C@@H]3CN(CCc4ccccc4)[C@@H]([C@@H]3CN1)[C@H]2Cc1ccccc1", "note": "(relative stereo) [IF-602]", "IC50": "10 to 30"}, {"molecule": "NC(=O)CN1C[C@@H]2C[C@@H]3CN[C@]2(C(=O)NCc2ccc(F)cc2)[C@@H]1[C@@H]3Cc1ccccc1", "note": "[IB-92]", "IC50": "10 to 30"}, {"molecule": "CC(C)CCN1C[C@@H]2C[C@@H]3CN[C@]2(C(=O)NCc2ccc(F)cc2)[C@@H]1[C@@H]3Cc1ccc(O)cc1", "note": "[IB-481]", "IC50": "< 5"}, {"molecule": "CCCCCCNC(=O)[C@]12NC[C@H]3C[C@H]1CN(CC(N)=O)[C@H]2[C@@H]3CCC(C)C", "note": "[IB-108]", "IC50": "10 to 30"}, {"molecule": "O=C(NCc1ccccc1)[C@@]12C[C@@H]3CN(Cc4cccc5ccccc45)[C@@H]([C@@H]3CN1)[C@H]2Cc1ccc(O)cc1", "note": "(relative stereo) [IF-505]", "IC50": "< 5"}, {"molecule": "CC(C)CN1C[C@@H]2C[C@@H]3CN[C@]2(C(=O)NCCO)[C@@H]1[C@@H]3Cc1cccc2ccccc12", "note": "[IB-687]", "IC50": "10 to 30"}, {"molecule": "CC(C)CCN1C[C@H]2C[C@]3(C(=O)NCc4ccc(O)cc4)NC[C@H]2[C@H]1[C@H]3CCC(=O)O", "note": "[IF-445]", "IC50": "10 to 30"}, {"molecule": "NC(=O)CN1C[C@@H]2C[C@@H]3CN[C@]2(C(=O)NCc2cccc4ccccc24)[C@@H]1[C@@H]3Cc1ccc(O)cc1", "note": "(relative stereo) [IB-83]", "IC50": "10 to 30"}, {"molecule": "CC(C)CC1C2C3C=NC1(C(=O)NCc1ccccc1)CC3CN2Cc1ccc(N(C)C)cc1", "note": "(centres unmarked) [IIF-94]", "IC50": "5 to 10"}, {"molecule": "CCCCCCNC(=O)[C@]12NC[C@H]3C[C@H]1CN(CCO)[C@H]2[C@@H]3Cc1ccccc1", "note": "[IB-476]", "IC50": "< 5"}, {"molecule": "CC(C)CNC(=O)[C@]12NC[C@H]3C[C@H]1CN(CCC(=O)O)[C@H]2[C@@H]3CO", "note": "[IB-431]", "IC50": "10 to 30"}, {"molecule": "CC(C)C[C@@H]1[C@@H]2[C@@H]3CN[C@@]1(C(=O)NCc1ccc(Cl)c(Cl)c1)C[C@@H]3CN2Cc1ccccc1", "note": "(relative stereo) [IF-20]", "IC50": "10 to 30"}, {"molecule": "NC(=O)CCNC(=O)[C@@]12C[C@@H]3CN(CCc4ccccc4)[C@@H]([C@@H]3CN1)[C@H]2CC(N)=O", "note": "[IF-219]", "IC50": "10 to 30"}, {"molecule": "NC(=O)CCNC(=O)[C@]12NC[C@H]3C[C@H]1CN(CC1CCCCC1)[C@H]2[C@@H]3Cc1ccccc1", "note": "[IB-637]", "IC50": "< 5"}, {"molecule": "CC(C)CC1C2CNC3(C(=O)NCc4ccc(O)cc4)C(C2)CN(CC2CCCCC2)C13", "note": "(centres unmarked) [IB-581]", "IC50": "10 to 30"}, {"molecule": "NC(=O)CN1C[C@@H]2C[C@@H]3CN[C@]2(C(=O)NCc2ccccc2)[C@@H]1[C@@H]3CCc1ccccc1", "note": "[IB-130]", "IC50": "10 to 30"}, {"molecule": "CC(C)C[C@@H]1[C@@H]2[C@@H]3CN[C@@]1(C(=O)NCc1cccc4ccccc14)C[C@@H]3CN2Cc1ccccc1", "note": "[IF-837]", "IC50": "5 to 10"}, {"molecule": "CC(C)C[C@@H]1[C@H]2CN[C@@]3(C(=O)NCc4ccc(Cl)cc4)[C@@H](C2)CN(CC(C)C)[C@@H]13", "note": "[IB-871]", "IC50": "10 to 30"}, {"molecule": "CC(C)CCNC(=O)[C@@]12C[C@@H]3CN(CC(C)C)[C@@H]([C@@H]3CN1)[C@H]2Cc1cccc2ccccc12", "note": "[IF-674]", "IC50": "10 to 30"}, {"molecule": "CC(C)CC1C2CNC3(C(=O)NCCC(N)=O)C(C2)CN(Cc2cccc4ccccc24)C13", "note": "(centres unmarked) [IB-520]", "IC50": "< 5"}, {"molecule": "CC(C)CCC1C2CNC3(C(=O)NCCc4ccccc4)C(C2)CN(CCO)C13", "note": "(centres unmarked) [IB-531]", "IC50": "10 to 30"}, {"molecule": "Cc1cccc(CNC(=O)[C@@]23C[C@@H]4CN(CC(C)C)[C@@H]([C@@H]4CN2)[C@H]3Cc2ccccc2)c1", "note": "(relative stereo) [IF-15]", "IC50": "10 to 30"}, {"molecule": "CC(C)CC1C2CNC3(C(=O)NCc4cccc5ccccc45)C(C2)CN(Cc2ccc(O)cc2)C13", "note": "(centres unmarked) [IB-541]", "IC50": "< 5"}, {"molecule": "CC(C)CC[C@@H]1[C@@H]2[C@@H]3CN[C@@]1(C(=O)NCc1ccc(O)cc1)C[C@@H]3CN2CCC(=O)O", "note": "[IF-458]", "IC50": "10 to 30"}, {"molecule": "CC(C)CNC(=O)[C@@]12C[C@@H]3CN(CCC(=O)O)[C@@H]([C@@H]3CN1)[C@H]2CCc1ccccc1", "note": "[IF-454]", "IC50": "10 to 30"}]}, {"tested_on": "recombinant rabies virus 1088 strain expressing Gaussia Luciferase (GLuc) (1088/GLuc)", "assay_type": "cell-based", "conditions": "read-out: IC50", "units": {"IC50": "µM"}, "values": [{"molecule": "CC(C)C[C@@H]1[C@@H]2[C@@H]3CN[C@@]1(C(=O)NCc1ccc(Cl)c(Cl)c1)C[C@@H]3CN2Cc1ccccc1", "note": "(relative stereo) [IF-20]", "IC50": 11.6}, {"molecule": "Cc1cccc(CNC(=O)[C@@]23C[C@@H]4CN(CC(C)C)[C@@H]([C@@H]4CN2)[C@H]3Cc2ccccc2)c1", "note": "(relative stereo) [IF-15]", "IC50": 17.1}]}]}
